We go through four molecules from paper PMC11833736 (ACS Pharmacology & Translational Science, 2025).

“And” between values parts separate entries of the source, which are not always exact repeats. Identical values can stand only once. A value given as a limit tells only on which side of the number the result lay.

Data set [1] relates to SH-SY5Y cells. Put plainly: Intracellular Ca content by ICP-MS, dark or green light. It is filed as cell-based. The settings on record: kept in the dark. How it is done:
Six hours after compound addition, the cells were irradiated with green light or kept in the dark. Intracellular Ca^2+ levels were then assessed by ICP-MS 24 h after light activation. The NMDA and α-amino-3-hydroxy-5-methyl-4-isoxazole propionic acid (AMPA) receptors being glutamate-gated cation channels allow for an increase of calcium permeability of the neuron membrane; we also used L-glutamic acid (GA, 10 μM), a known NMDA and AMPA activator, as positive control in this assay.
(§1) 1 mL of SH-SY5Y cells were seeded in 12-well plates (Greiner, No. 665180; 500.000 cells per well). […] After an additional 24 h of incubation, the cells were trypsined, collected, and centrifuged. The resulting cell pellet was dissolved in 1 mL of PBS and counted via a BioRad TC20 automated cell counter. Afterward, the solution was centrifuged and washed again with PBS with subsequent centrifuging two more times. The resulting cell pellet was digested in 0.5 mL of HNO3 overnight in a hot oven (90 °C). The solution was diluted with Milli-Q water to 10 mL, and the Ru and Ca content [ppb] was measured via ICP-MS.

Data set [2] relates to SH-SY5Y cells. Put plainly: Cytotoxicity, SRB end-point assay, dark or green light. It is filed as cell-based.
The nature of data set [3]: Stability in the dark in the presence of L-glutathione (UV-vis). The settings on record: water, 37 °C, 500 μM L-glutathione, spectra after 2 and 24 h. It is filed as physicochemical. Here is the method:
The synthesis and characterization of all three complexes have been described earlier and can be found in refs ([56]) and ([57]). In water or OptiMEM cell medium, the complexes were also previously found to be stable in the dark for at least 24 h at 37 °C. Upon blue or green light irradiation (λ = 452 or 517 nm), they are activated by photosubstitution of the thioether ligand to afford the aqua ruthenium complex and the free thioether ligand.[56] […] The UV–vis spectra were then recorded after 2 and 24 h separately. […] Additionally, we could not observe any color change, which is typical when one of the ligands is exchanged against another one.
UV–vis spectroscopy experiments were performed on a Cary 60 Varian spectrometer equipped with a temperature control set to 310 K and a magnetic stirrer. The measurements were performed in a quartz cuvette containing 3 mL of solution. […] Then, the UV–vis spectrum was recorded without the presence of GSH. After 4 min, GSH was added (0.5 mM) and UV–vis spectra were recorded directly after and after 2 and 24 h, while the vial was kept in the dark and at 37 °C.

Data set [4] deals with SH-SY5Y cells. Put plainly: Ru cellular uptake by ICP-MS, dark or green light. Type of data set: in vitro ADME. The settings on record: 20 μM, kept in the dark. How it is done: These surprising results led us to further investigate whether the uptake of the respective compounds plays a pivotal role in the alternation of the proliferation. […] The complex was allowed to incubate for 24 h after irradiation before the ruthenium cellular content was analyzed by ICP-MS. […] We finally decided to incubate the SH-SY5Y cells with the EC50 values obtained from the cytotoxicity experiment using the U-87MG cell, as those procedures would allow one to observe the effect of the prodrug on the healthy neuron-like cells when treated with the phototoxic compound dose. […] Overall, cellular uptake in neuron-like SH-SY5Y cells followed the same trends as those for GBM cells U-87MG in the dark, while uptake was much higher after light activation.
as §1

The subject of data set [5] is U-87MG glioblastoma cells. Put plainly: Cytotoxicity, SRB end-point assay, dark or green light. As to conditions: read-out: EC50,D, kept in the dark, 24 h + 48 h incubation, normoxic (21% O2).
Data set [6] deals with AChE (Electrophorus electricus, UniProt O42275). From the text: Among all enzymes involved in transmembrane signaling, another important one is AChE. In a modified procedure (for further details, see the Experimental Section), we checked whether the ruthenium complexes were able to inhibit AChE in the dark and after light activation. The colorimetric assay used Ellman’s reagent. […] The conversion of 5,5′-dithiobis(2-nitrobenzoic acid) (DTNB) to yellow 2-nitro-5-thiobenzoate (TNB) initiated by the addition of acetylthiocholine was then detected by UV–vis spectroscopy every 5 min for a total time of […]. […] The solution was further diluted 1:50 in 50 mM Tris buffer, pH = 8 (10 μL in 490 μL), and then placed in 4.5 mL of 50 mM Tris buffer, pH = 8. […] 50 μL of the enzyme and 50 μL of the complex solution were added to a 96-well plate in triplicates. […] Meanwhile, a 10 mM solution of acetylthiocholine iodide and 10 mM DTNB was prepared. After the respective time, in each well, 5 μL of the acetylthiocholine iodide and DTNB mixture was added. The absorbance was read at a microplate Tecan reader at 410 nm every 5 min for in total 40 min.

In data set [7] the test system is U-87MG cells. Put plainly: Ru cellular uptake by ICP-MS. As to conditions: 10 μM; for Ru cellular uptake: dark. It is filed as in vitro ADME. From the text:
The cellular accumulation of Ru^2+ can provide additional information about how differences in anticancer efficacy may relate to the amount of the Ru prodrug in the cell before light activation. For instance, low uptake often leads to limited cytotoxicity due to limited access to the drug target. […] Similar results have been observed in A549 lung cancer cells previously.[56] […] For unknown reasons, it appears that the amine bridge in the i-diqa ligand facilitates the uptake of ruthenium compound [3](PF6)2.
Materials: 65% nitric acid (Suprapur, Merck) was used in the sample digestion process, while diluted 1% nitric acid (v/v) was employed as a carrying solution throughout the ICP measurements. For preparation of calibration and internal standards, National Institute of Standards and Technology (NIST)-traceable 1000 mg/L elemental standards were used (TraceCERT, Fluka). Approximately 18 MΩ cm^–1 water (Milli-Q) was employed in all sample preparation and analysis steps.
Instrumentation: Calibration standards were prepared in a Secuflow fume hood (SCALA) to prevent contamination by atmospheric particulates. The standard samples and measurement samples were analyzed for trace elements using the NexION 2000 (PerkinElmer) ICP-MS instrument equipped with a concentric glass nebulizer and a Peltier-cooled glass spray chamber. An SC2 DX autosampler (PerkinElmer) was connected to ICP-MS for sample introduction. Syngistix software for ICP-MS (v.2.5, PerkinElmer) was used for all data recording and processing. Five trace elemental calibration standards for ICP-MS analysis were prepared using NIST-traceable 1000 mg/L Ru standards: 0, 1, 5, 20, and 100 μg/L. Samples were analyzed without dilution in the original delivery containers to minimize the possibility of contamination. Here, 10 μg/L Rh and In were used as internal standards. To check the calibration, samples were analyzed with a blank measurement and a repeat measurement with one of the calibration standards.
Sample preparation: 1 mL of U-87MG cells were seeded in 12-well plates (Greiner, No. 665180; 400.000 cells per well). […] Afterward, the cells were trypsined, collected, and centrifuged. The resulting cell pellet was dissolved in 1 mL of PBS and counted via a BioRad TC20 automated cell counter. Afterward, the solution was centrifuged and washed again with PBS with subsequent centrifuging. This washing step was repeated twice. The resulting cell pellet was digested in 0.5 mL of 65% HNO3 overnight in a hot oven (90 °C). The solution was diluted with Milli-Q water to 10 mL, and the Ru content [ppb] was measured by ICP-MS.

Data set [8] relates to A549 lung cancer cell lines. Further details: method as in PMID 31625740, PMID 29220545, PMID 34378103. As to conditions: cited from earlier work.
Data set [9] has as its system A375 skin melanoma. On the set-up: method as in PMID 31625740, PMID 29220545, PMID 34378103. As to conditions: cited from earlier work.
The test system of data set [10] is U-87MG glioblastoma cells. Put plainly: Cytotoxicity determined by MTT (3 mg/mL). Type of data set: cell-based. The settings on record: Homo sapiens, dark.

AChE, sequence (O42275 24-633): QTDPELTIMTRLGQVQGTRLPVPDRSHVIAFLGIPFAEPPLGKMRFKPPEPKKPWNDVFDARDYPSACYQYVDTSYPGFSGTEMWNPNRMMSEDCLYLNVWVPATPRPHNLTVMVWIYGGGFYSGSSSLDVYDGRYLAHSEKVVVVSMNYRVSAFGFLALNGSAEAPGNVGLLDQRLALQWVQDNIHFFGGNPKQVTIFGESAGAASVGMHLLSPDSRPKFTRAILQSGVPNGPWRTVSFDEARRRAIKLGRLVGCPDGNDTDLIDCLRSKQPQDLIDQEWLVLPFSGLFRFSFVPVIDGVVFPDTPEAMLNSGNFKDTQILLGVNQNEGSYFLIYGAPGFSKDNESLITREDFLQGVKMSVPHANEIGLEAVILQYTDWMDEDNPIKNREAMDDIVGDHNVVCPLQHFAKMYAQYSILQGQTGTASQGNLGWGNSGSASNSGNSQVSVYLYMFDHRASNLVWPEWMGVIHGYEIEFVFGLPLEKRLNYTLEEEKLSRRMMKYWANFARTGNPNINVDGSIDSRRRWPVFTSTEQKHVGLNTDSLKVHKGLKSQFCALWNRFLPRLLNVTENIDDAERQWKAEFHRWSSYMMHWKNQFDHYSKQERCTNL

As for `N[C@@H](CCC(=O)O)C(=O)O` [L-glutamic acid, reference compound], the “Ca uptake, Dark” value stood at 322.84± 53 ng Ca/mio. cells in data set [1] (10 μM) and 322 ng Ca/mio. cells in data set [1] (10 μM, listed as Glutamate).
As usually defined, the EC50 is the concentration at which the effect is half-maximal. For orientation: IC50 means the concentration that inhibits the measured activity by half. For `CSCCO.F[P-](F)(F)(F)(F)F.F[P-](F)(F)(F)(F)F.[Ru+2].c1ccc(-c2cccc(-c3ccccn3)n2)nc1.c1ccc(-c2ccccn2)nc1` [[1](PF6)2], the “concentration required to block cell growth” value in data set [2] (in the dark) was above 40 µM. Besides, the EC50 in data set [2] (kept in the dark, SRB, normoxic (21% O2)) was above 100 µM; in data set [5], above 100 µM. In addition, in [3], the “stability in the dark with GSH (UV-vis, in words)” value is given as “no change suggesting ligand exchange on ruthenium was observed”. For the same molecule, in data set [4], the “Ru uptake, Dark” value was 0.40 ± 0.25 ng Ru/mio. cells and 0.4 ng Ru/mio. cells. The molecule also came in with a PI in data set [6] (AChE, IC50 dark / IC50 green light) above 2.2. In addition, the IC50 in data set [6] (read-out: IC50,D, isolated AChE, 30 min in the dark, read 35 min after DTNB addition) is above 15 µM. Besides, the Uptake in % is given as 0.56% in data set [7] (6 h) and 0.43% in [7] (24 h). The Ru cellular uptake was 0.6 ng Ru/mio. cells and 0.60 ± 0.38 ng Ru/mio. cells in data set [7] (6 h incubation); 0.42 ng Ru/mio. cells and 0.42 ± 0.11 ng Ru/mio. cells in data set [7] (24 h incubation). The overall uptake in data set [7] (one figure given for 6 and 24 h) was 0.5%. The “Ca uptake, Dark” value in [1] (20 μM) is 467.78 ± 122 ng Ca/mio. cells and 467 ng Ca/mio. cells.
On to `O.[Ru+2].c1ccc(-c2cccc(-c3ccccn3)n2)nc1.c1ccc(-c2ccccn2)nc1` [[4]^2+, [Ru(tpy)(bpy)(OH2)]^2+], for which the “toxicity (in words)” value in data set [8] and in data set [9] was “nontoxic” throughout.
In turn, `Cn1nnc2c(C(N)=O)ncn2c1=O` [temozolomide] displayed an EC50 in data set [10] above 100 µM.
